Where two headings read alike, the source gives them in different places.
What was measured:
[1] = tested on: NO production; details: compared with vitamin E; cited from earlier work
[2] = tested on: PC12 cells; test: Cytoprotection against linoleic acid hydroperoxide (LA-OOH) cell disorder, PC12 cells, methylene blue dye uptake; type: cell-based, rat; details: for Protection Rate (%) / Survival Rate (%): LA-OOH 35 μM, about 20 h; for protection rate of PC12 cells (up to) / survival rate of PC12 cells (up to): highest value over the doses tested
Method: (§1) Of the hydroquinone derivatives expressed in the aforesaid Formula 1, 2,3,5-trimethyl-hydroquinone-1-hexylether (Compound 1) was examined in comparison with vitamin E with respect to the activity of inhibiting toxicity of lipid peroxide to nerve cells. PC12 cells as a cell culture model of for human neuroblastoma-derived SH-SY5Y and rat pheochromocytoma cells were cultivated by the law of the art. A culture media was prepared in effect by adding FCS (fetal calf serum) to Dulbecco's Eagle medium (DMEM) and used further with the addition of NaHCO3 (3.7 g/L), penicillin G (100 U/mL) and Streptomycin ([…]). A cultivation was performed by seeding 6×10^4 SH-SY5Y cells and 4×10^4 PC12 cells in a CO2 incubator at 37° C. using a microplate with 24 macroscopic pores. After 48 hours, the aforesaid Compound 1 or vitamin E was added thereto. Then after about 30 minutes, 70 μM of linoleic acid hydroperoxide were added thereto for the SH-SY5Y cells and 35 μM of the same were added for PC12 cells. After cultivation for about 20 hours, the number of surviving cells was measured.
(§2) The measurement of the surviving cells was made by a Methylene blue dye uptake method. To be more specific, the cells were rinsed twice with PBS (phosphate buffered saline free from Mg and Ca), and then, fixated with 10% formalin for 5 minutes. Further, the cells were rinsed three times with distilled water, stained with 0.05% methylene blue solution for 60 minutes, and rinsed three times with distilled water. Then, 20 minutes after adding 0.33N HCl thereto, the absorbance of the cells was measured at 665 nm. The survival rate and protection rate of the cells were calculated on the basis of the measured result by the following equation.
(§3) Cell survival rate (%)=[absorbance of treated cells with testing additives]/[absorbance of non-treated cells]×100
(§4) Protection rate (%)={1−(100−[survival rate of treated cells with testing additives])/(100−[survival rate of cells with no additives])}×100

[3] = compared with vitamin E, cited from earlier work
[4] = tested on: SH-SY5Y cells; test: Cytoprotection against linoleic acid hydroperoxide (LA-OOH) cell disorder, SH-SY5Y cells, methylene blue dye uptake; type: cell-based, human; details: for Protection Rate (%) / Survival Rate (%): SH-SY5Y cells, LA-OOH 70 μM, about 20 h
Method: as §1, §2, §3, §4

| Compound | Protection Rate (%) ([2]; dosage 0.1 μM) | Survival Rate (%) ([2]; dosage 0.1 μM) | Protection Rate (%) ([2]; dosage 0.5 μM) | Survival Rate (%) ([2]; dosage 0.5 μM) | Protection Rate (%) ([2]; dosage 1.0 μM) | Survival Rate (%) ([2]; dosage 1.0 μM) | Protection Rate (%) ([2]; dosage 5.0 μM) | Survival Rate (%) ([2]; dosage 5.0 μM) | protection rate of PC12 cells (up to) [2] | survival rate of PC12 cells (up to) [2] | Protection Rate (%) ([4]; dosage 0.5 μM) | Survival Rate (%) ([4]; dosage 0.5 μM) | Protection Rate (%) ([4]; dosage 1.0 μM) | Survival Rate (%) ([4]; dosage 1.0 μM) | Protection Rate (%) ([4]; dosage 5.0 μM) | Survival Rate (%) ([4]; dosage 5.0 μM) | Protection Rate (%) ([4]; dosage 10.0 μM) | Survival Rate (%) ([4]; dosage 10.0 μM) | also measured |
| --- | --- | --- | --- | --- | --- | --- | --- | --- | --- | --- | --- | --- | --- | --- | --- | --- | --- | --- | --- |
| CCCCCCOc1cc(C)c(O)c(C)c1C [Compound 1, 2,3,5-trimethyl-hydroquinone-1-hexylether] | 21.5 | 45.68 | 80.6 | 86.57 | 88.4 | 91.96 | 88.9 | 92.31 | around 90% | around 90% | 14.8 | 83.41 | 22.1 | 84.83 | 38.3 | 87.97 | 33.5 | 87.04 | NO-production inhibitory activity relative to vitamin E [1]: 500 times as strong as vitamin E; antioxidative properties relative to vitamin E [3]: double that of vitamin E; antioxidative properties relative to vitamin E ([3]; listed as 2,3,5-trimethyl-hydroquinone-1-hexylether): twice as strong as vitamin E; toxicity in comparison with vitamin E ([4]; SH-SY5Y cells and PC12 cells, from Table 1 and Table 2): lower toxicity |
| Vitamin E [reference compound] | 6.8 | 37.16 | 4.9 | 35.88 | 4.8 | 35.85 | 14.8 | 42.57 | around 15% | about 42% | 14.5 | 83.72 | −6.3 | 79.77 | −6.2 | 79.78 | 4.3 | 81.78 |  |
